The test system of one test is mice (strain NLMN). In words: Forced swim test. It is filed as in vivo, mouse. The settings on record: positive control 32 mg/kg IP.
Test [1] has as its system rats. In words: Electroconvulsive threshold (ECT) test. It is filed as in vivo, rat.
Test [2] has as its system rats. In words: Haloperidol-induced catalepsy (HIC) model. It is filed as in vivo, rat. The settings on record: positive control 8 mg/kg.

The values that follow come from patent publication US10420768B2, “Pyrrolopyrimidine derivatives as NR2B NMDA receptor antagonists” (Rugen Holdings (Cayman) Limited, priority 2014, dated 2019).

In the case of `CN(C)CCCN1c2ccccc2CCc2ccccc21` [imipramine], in the test with mice (strain NLMN), the “antidepressant activity (immobility time)” value is “showed the expected antidepressant activity”.

`CN1C(=O)CN=C(c2ccccc2)c2cc(Cl)ccc21` [diazepam]: the “anticonvulsant activity (electroconvulsive threshold)” value in the test on rats [1] (positive control 16 mg/kg p.o.) was “showed the expected pro- and anticonvulsant activities”. Regarding `Cn1c(=O)c2[nH]cnc2n(C)c1=O` [theophylline, Theophylline], the “proconvulsant activity (electroconvulsive threshold)” value in the test on rats [1] (positive control 128 mg/kg p.o.) was “showed the expected pro- and anticonvulsant activities”. As for `CC(N)Cc1ccccc1` (stereo not shown) [amphetamine], the “anticataleptic activity (catalepsy score)” value in the test on rats [2] is “showed the expected robust anticataleptic activity”.
